From PubChem BioAssay (NCI)
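These data come from cells grown in 96-well plates and exposed to compound for 48 hours at five concentrations. Definition used: TGI = concentration required for complete inhibition of growth.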

Columns and labels:
Test in all cases: NCI tumour cell line growth inhibition, 48 h
[1] = tested on: SF-295 CNS
[2] = tested on: SF-539 CNS
[3] = tested on: HT29 colon
[4] = tested on: SNB-19 CNS
[5] = tested on: OVCAR-4 ovarian
[6] = tested on: OVCAR-8 ovarian
[7] = tested on: UACC-257 melanoma
[8] = tested on: HS 578T breast
[9] = tested on: 786-0 renal
[10] = tested on: SN12C renal
[11] = tested on: SNB-75 CNS
[12] = tested on: U251 CNS
[13] = tested on: NCI-H460 lung
[14] = tested on: HL-60(TB) leukemia
[15] = tested on: HCC-2998 colon
[16] = tested on: BT-549 breast
[17] = tested on: CAKI-1 renal
[18] = tested on: SW-620 colon
[19] = tested on: UO-31 renal
[20] = tested on: M14 melanoma
[21] = tested on: IGROV1 ovarian
[22] = tested on: NCI/ADR-RES ovarian
[23] = tested on: RXF 393 renal
[24] = tested on: COLO 205 colon
[25] = tested on: SK-OV-3 ovarian
[26] = tested on: MDA-MB-435
[27] = tested on: NCI-H226 lung
[28] = tested on: OVCAR-5 ovarian
[29] = tested on: T-47D breast
[30] = tested on: ACHN renal
[31] = tested on: A498 renal
[32] = tested on: HCT-116 colon
[33] = tested on: K-562 leukemia
[34] = tested on: MDA-N
[35] = tested on: MDA-MB-231 breast
[36] = tested on: RPMI-8226 leukemia
[37] = tested on: EKVX NSCLC
[38] = tested on: PC-3 prostate
[39] = tested on: LOX IMVI melanoma
[40] = tested on: MOLT-4 leukemia
[41] = tested on: TK-10 renal
[42] = tested on: SK-MEL-2 melanoma
[43] = tested on: CCRF-CEM leukemia
[44] = tested on: A549 NSCLC
[45] = tested on: MCF7 breast
[46] = tested on: DU-145 prostate
[47] = tested on: SK-MEL-28 melanoma
[48] = tested on: UACC-62 melanoma
[49] = tested on: HCT-15 colon
[50] = tested on: NCI-H23 lung
[51] = tested on: SF-268 CNS
[52] = tested on: OVCAR-3 ovarian
[53] = tested on: HOP-62 NSCLC
[54] = tested on: KM12 colon
[55] = tested on: HOP-92 NSCLC
[56] = tested on: NCI-H522 lung
[57] = tested on: SR leukemia
[58] = tested on: SK-MEL-5 melanoma
[59] = tested on: MALME-3M melanoma

`Cc1[nH]c2ncn(/N=C/c3ccccc3)c(=N)c2c1Cc1ccccc1` gave a TGI [1] greater than 100 µM, a TGI [2] greater than 100 µM and a TGI [3] greater than 100 µM. The TGI [4] was greater than 100 µM, the TGI [5] was greater than 100 µM and the TGI [6] was greater than 100 µM. For the same molecule, the TGI [7] was greater than 100 µM, the TGI [8] was greater than 100 µM and the TGI [9] was greater than 100 µM. It also gave a TGI [10] greater than 100 µM, a TGI [11] greater than 100 µM and a TGI [12] greater than 100 µM. It also gave a TGI [13] greater than 100 µM, a TGI [14] greater than 100 µM and a TGI [15] greater than 100 µM. It also gave a TGI [16] greater than 100 µM, a TGI [17] greater than 100 µM and a TGI [18] greater than 100 µM. The TGI [19] was greater than 100 µM, the TGI [20] was greater than 100 µM and the TGI [21] was greater than 100 µM. The TGI [22] was greater than 100 µM, the TGI [23] was greater than 100 µM and the TGI [24] was greater than 100 µM. The TGI [25] was greater than 100 µM, the TGI [26] was greater than 100 µM and the TGI [27] was greater than 100 µM. The TGI [28] was greater than 100 µM, the TGI [29] was greater than 100 µM and the TGI [30] was greater than 100 µM. For the same molecule, the TGI [31] was greater than 100 µM, the TGI [32] was greater than 100 µM and the TGI [33] was greater than 100 µM. The TGI [34] was greater than 100 µM, the TGI [35] was greater than 100 µM and the TGI [36] was greater than 100 µM. It also gave a TGI [37] greater than 100 µM, a TGI [38] greater than 100 µM and a TGI [39] greater than 100 µM. It also gave a TGI [40] greater than 100 µM, a TGI [41] greater than 100 µM and a TGI [42] greater than 100 µM. For the same molecule, the TGI [43] was greater than 100 µM, the TGI [44] was greater than 100 µM and the TGI [45] was greater than 100 µM. It also gave a TGI [46] greater than 100 µM, a TGI [47] greater than 100 µM and a TGI [48] greater than 100 µM. It also gave a TGI [49] greater than 100 µM, a TGI [50] greater than 100 µM and a TGI [51] greater than 100 µM. The TGI [52] was greater than 100 µM, the TGI [53] was greater than 100 µM and the TGI [54] was greater than 100 µM. It also gave a TGI [55] greater than 100 µM.

With `CCCCCCCCCC(=O)OCC1(CO)C/C(=C/CC(C(C)C)C(C)C)C(=O)O1` (stereo unspecified) the TGI [1] was greater than 100 µM, the TGI [3] was greater than 100 µM and the TGI [4] was greater than 100 µM. It also gave a TGI [56] of 39.8 µM, a TGI [5] greater than 100 µM and a TGI [6] greater than 100 µM. The TGI [7] was greater than 100 µM, the TGI [8] was greater than 100 µM and the TGI [9] was greater than 100 µM. For the same molecule, the TGI [10] was greater than 100 µM, the TGI [11] was greater than 100 µM and the TGI [12] was 89.4 µM. It also gave a TGI [13] greater than 100 µM, a TGI [15] greater than 100 µM and a TGI [16] greater than 100 µM. For the same molecule, the TGI [17] was 56.6 µM, the TGI [18] was 81.6 µM and the TGI [19] was 95.8 µM. It also gave a TGI [57] greater than 100 µM, a TGI [20] greater than 100 µM and a TGI [21] greater than 100 µM. The TGI [22] was greater than 100 µM, the TGI [23] was greater than 100 µM and the TGI [24] was 28.7 µM. For the same molecule, the TGI [25] was greater than 100 µM, the TGI [26] was greater than 100 µM and the TGI [27] was greater than 100 µM. The TGI [28] was greater than 100 µM, the TGI [29] was greater than 100 µM and the TGI [30] was greater than 100 µM. It also gave a TGI [31] greater than 100 µM, a TGI [32] greater than 100 µM and a TGI [33] of 97 µM. It also gave a TGI [34] greater than 100 µM, a TGI [58] greater than 100 µM and a TGI [35] greater than 100 µM. It also gave a TGI [37] greater than 100 µM, a TGI [38] greater than 100 µM and a TGI [39] greater than 100 µM. It also gave a TGI [40] of 54 µM, a TGI [41] greater than 100 µM and a TGI [42] greater than 100 µM. The TGI [43] was 73.1 µM, the TGI [44] was greater than 100 µM and the TGI [45] was greater than 100 µM. It also gave a TGI [46] greater than 100 µM, a TGI [47] greater than 100 µM and a TGI [59] of 82.3 µM. For the same molecule, the TGI [48] was greater than 100 µM, the TGI [49] was greater than 100 µM and the TGI [50] was greater than 100 µM. It also gave a TGI [51] greater than 100 µM, a TGI [52] greater than 100 µM and a TGI [53] greater than 100 µM. It also gave a TGI [54] of 83.7 µM and a TGI [55] greater than 100 µM.
